Source: patent US20080051429A1, “USE OF 4-AMINO-PIPERIDINES FOR TREATING SLEEP DISORDERS” (priority 2006, published 2008)
Structures can show the parent of a compound that is named as a salt. Where two headings read alike, the source gives them in different places.

Experiments:
[1] = biological target: D2 (Homo sapiens, UniProt P14416); assay: R-SAT selectivity profile; format: cell-based; design: expressed in transfected cells
Procedure: (§1) The functional receptor assay, Receptor Selection and Amplification Technology (R-SAT), was used (with minor modifications from that previously described U.S. Pat. No. 5,707,798) to screen compounds for efficacy at the 5-HT2A receptor. Briefly, NIH3T3 cells were grown in 96 well tissue culture plates to 70-80% confluence. Cells were transfected for 12-16 hours with plasmid DNAs using superfect (Qiagen Inc.) as per manufacture's protocols. R-SAT's were generally performed with 50 ng/well of receptor and 20 ng/well of Beta-galactosidase plasmid DNA. All receptor and G-protein constructs used were in the pSI mammalian expression vector (Promega Inc) as described in U.S. Pat. No. 5,707,798. The 5HT2A receptor gene was amplified by nested PCR from brain cDNA using the oligodeoxynucleotides based on the published sequence (see Saltzman et. al. Biochem. Biophys. Res. Comm. 181:1469-78 (1991)). Large-scale transfections, cells were transfected for 12-16 hours, then trypsinized and frozen in DMSO. Frozen cells were later thawed, plated at 10,000-40,000 cells per well of a 96 well plate that contained drug. With both methods, cells were then grown in a humidified atmosphere with 5% ambient CO2 for five days. Media was then removed from the plates and marker gene activity was measured by the addition of the beta-galactosidase substrate ONPG (in PBS with 5% NP-40). The resulting colorimetric reaction was measured in a spectrophotometric plate reader (Titertek Inc.)at […]. All data were analyzed using the computer program XLFit (IDBSm). Efficacy is the percent maximal repression compared to repression by a control compound (ritanserin in the case of 5HT2A). pIC50 is the negative of the log(IC50), where IC50 is the calculated concentration in Molar that produces 50% maximal repression.
(§2) R-SAT assays (as described in Example 42) were carried out with cells transfected with receptors (listed below) to determine the receptor selectivity profile for compound 26HCH16D. 5HT2A inverse agonist data (IC50 nM; % efficacy) were derived from detailed dose response curves (7 points in triplicate).

[2] = biological target: 5HT1E (Homo sapiens, UniProt P28566); assay: R-SAT selectivity profile; format: cell-based; design: expressed in transfected cells; conditions: agonist
Procedure: as §1, §2

[3] = biological target: T1, 5HT1A (Homo sapiens, UniProt P08908); assay: R-SAT selectivity profile; format: cell-based; design: expressed in transfected cells; conditions: agonist
T1 sequence (P08908 1-422): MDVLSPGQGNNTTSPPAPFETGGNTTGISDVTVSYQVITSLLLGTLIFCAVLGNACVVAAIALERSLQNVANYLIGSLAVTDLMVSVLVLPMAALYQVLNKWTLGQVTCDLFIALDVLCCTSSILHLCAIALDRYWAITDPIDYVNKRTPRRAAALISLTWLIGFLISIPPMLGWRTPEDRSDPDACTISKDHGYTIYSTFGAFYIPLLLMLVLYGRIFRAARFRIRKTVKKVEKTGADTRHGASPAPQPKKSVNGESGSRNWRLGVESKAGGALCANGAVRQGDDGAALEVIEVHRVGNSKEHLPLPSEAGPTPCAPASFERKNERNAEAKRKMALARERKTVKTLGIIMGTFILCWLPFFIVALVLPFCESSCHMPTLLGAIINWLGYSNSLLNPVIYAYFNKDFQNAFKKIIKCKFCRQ
Procedure: as §1, §2

[4] = biological target: H1 (Homo sapiens, UniProt P35367); assay: R-SAT selectivity profile; format: cell-based; design: expressed in transfected cells
Procedure: as §1, §2

[5] = biological target: T2, 5HT2C (Homo sapiens, UniProt P28335); assay: R-SAT selectivity profile; format: cell-based; design: expressed in transfected cells
T2 sequence (P28335 33-458): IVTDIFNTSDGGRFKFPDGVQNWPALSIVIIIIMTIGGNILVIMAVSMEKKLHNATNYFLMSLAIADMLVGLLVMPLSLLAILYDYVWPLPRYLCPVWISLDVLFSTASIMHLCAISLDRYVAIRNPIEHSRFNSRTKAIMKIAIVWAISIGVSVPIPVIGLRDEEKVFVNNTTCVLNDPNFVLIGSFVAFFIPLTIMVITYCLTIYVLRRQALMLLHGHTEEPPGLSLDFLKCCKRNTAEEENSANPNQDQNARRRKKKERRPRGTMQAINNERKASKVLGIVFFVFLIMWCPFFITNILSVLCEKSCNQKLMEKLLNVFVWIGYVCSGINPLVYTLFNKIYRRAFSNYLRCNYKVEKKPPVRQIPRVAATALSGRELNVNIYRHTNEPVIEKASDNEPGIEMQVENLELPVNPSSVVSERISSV
Procedure: as §1, §2

[6] = biological target: 5HT2B (Homo sapiens, UniProt P41595); assay: R-SAT selectivity profile; format: cell-based; design: expressed in transfected cells
Procedure: as §1, §2

[7] = biological target: T3, alpha1c/A (Homo sapiens, UniProt P35348); assay: R-SAT selectivity profile; format: cell-based
T3 construct: expressed in transfected cells
T3 sequence (P35348 1-466): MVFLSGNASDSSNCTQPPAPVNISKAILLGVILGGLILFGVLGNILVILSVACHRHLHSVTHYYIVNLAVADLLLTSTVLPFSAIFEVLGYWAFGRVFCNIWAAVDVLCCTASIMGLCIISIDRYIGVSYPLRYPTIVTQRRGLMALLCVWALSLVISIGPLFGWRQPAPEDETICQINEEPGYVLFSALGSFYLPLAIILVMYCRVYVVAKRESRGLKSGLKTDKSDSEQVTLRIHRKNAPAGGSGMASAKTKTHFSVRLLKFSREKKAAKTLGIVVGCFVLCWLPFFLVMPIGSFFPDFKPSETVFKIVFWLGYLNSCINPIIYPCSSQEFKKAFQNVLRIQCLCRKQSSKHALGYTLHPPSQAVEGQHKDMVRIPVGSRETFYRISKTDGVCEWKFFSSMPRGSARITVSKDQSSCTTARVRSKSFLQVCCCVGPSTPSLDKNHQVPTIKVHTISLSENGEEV
Procedure: as §1, §2

[8] = biological target: T4, alpha1a/D (Rattus norvegicus, UniProt P23944); assay: R-SAT selectivity profile; format: cell-based
T4 construct: expressed in transfected cells
Procedure: as §1, §2

[9] = biological target: T5, 5HT1A (Rattus norvegicus, UniProt P19327); assay: R-SAT selectivity profile; format: cell-based; conditions: antagonist
T5 construct: expressed in transfected cells
Procedure: as §1, §2

[10] = biological target: T6, 5-HT2A receptor (Homo sapiens, UniProt P28223); assay: R-SAT functional receptor assay; format: cell-based
T6 construct: expressed in transfected cells; host or cells: NIH3T3 cells, pSI expression vector

[11] = biological target: T7, alpha1b/B (Mesocricetus auratus, UniProt P18841); assay: R-SAT selectivity profile; format: cell-based, hamster
T7 construct: expressed in transfected cells
Procedure: as §1, with “Frozen cells were later thawed, plated at 10,000-40,000 cells per well of a 96 well plate that contained drug. With both methods, cells were then grown in a humidified atmosphere with 5% ambient CO2 for five days.” left out, “Efficacy is the percent maximal repression compared to repression by a control compound (ritanserin in the case of 5HT2A). pIC50 is the negative of the log(IC50), where IC50 is the calculated concentration in Molar that produces 50% maximal repression.” left out

[12] = test system: Male NSA mice; assay: In vivo determination of behavioral effects (motor activity, MK-801 hyperactivity); conditions: p.o.; minimum effective dose vs vehicle control
Procedure: Male NSA mice (Harlan; San Deigo, Calif.) were used as subjects. Mice weighed 20-30 g. Animals were housed 8/cage in the One Cage system (One Cage; Lab Products, Inc., Seaford, Del.) with bedding (⅛ inch Bed “O” Cob; Harlan Teklad, Madison, Wis.) in a room with controlled temperature 22±3° C. and a 12 hour light:dark cycle (lights on 6 am). Water and standard rodent chow (Harlan Teklad) were continuously available in the home cage. For testing, plastic locomotor activity cages (20×20×30 cm; AccuScan Instruments, Columbus, Ohio) were equipped with photocell beams for monitoring horizontal activity. Data were collected using Versamax computer software (AccuScan Instruments). For determination of spontaneous activity, test compounds were administered alone (s.c. 10 min or p.o. 30 min before the session). For hyperactivity experiments, mice were injected with 0.3 mg/kg MK-8011.p. 15 min precession (the peak dose for producing hyperactivity in an inverted-U dose-effect curve as determined in pilot experiments) in combination with vehicle or test compound. Motor activity data were collected during a 15 min session in a lit room. Mice had no prior exposure to the motor cages. Each dose or dose combination was tested in a separate group of mice (n=8). Distance traveled (cm) was calculated and averaged across animals in a group. […]

Sequence of D2 (P14416 whole entry): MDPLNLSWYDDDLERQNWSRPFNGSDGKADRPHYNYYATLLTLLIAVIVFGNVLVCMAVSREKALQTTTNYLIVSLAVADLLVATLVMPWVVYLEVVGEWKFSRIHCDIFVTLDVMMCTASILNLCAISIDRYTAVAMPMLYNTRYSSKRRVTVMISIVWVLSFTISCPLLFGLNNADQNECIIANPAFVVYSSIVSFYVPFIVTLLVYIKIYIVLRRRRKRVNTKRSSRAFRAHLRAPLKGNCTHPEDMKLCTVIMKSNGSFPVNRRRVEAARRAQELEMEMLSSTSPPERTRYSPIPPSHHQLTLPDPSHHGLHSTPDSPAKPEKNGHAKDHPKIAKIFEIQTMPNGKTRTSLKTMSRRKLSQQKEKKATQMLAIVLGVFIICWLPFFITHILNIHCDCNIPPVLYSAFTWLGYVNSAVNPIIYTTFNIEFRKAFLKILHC
Sequence of H1 (P35367 whole entry): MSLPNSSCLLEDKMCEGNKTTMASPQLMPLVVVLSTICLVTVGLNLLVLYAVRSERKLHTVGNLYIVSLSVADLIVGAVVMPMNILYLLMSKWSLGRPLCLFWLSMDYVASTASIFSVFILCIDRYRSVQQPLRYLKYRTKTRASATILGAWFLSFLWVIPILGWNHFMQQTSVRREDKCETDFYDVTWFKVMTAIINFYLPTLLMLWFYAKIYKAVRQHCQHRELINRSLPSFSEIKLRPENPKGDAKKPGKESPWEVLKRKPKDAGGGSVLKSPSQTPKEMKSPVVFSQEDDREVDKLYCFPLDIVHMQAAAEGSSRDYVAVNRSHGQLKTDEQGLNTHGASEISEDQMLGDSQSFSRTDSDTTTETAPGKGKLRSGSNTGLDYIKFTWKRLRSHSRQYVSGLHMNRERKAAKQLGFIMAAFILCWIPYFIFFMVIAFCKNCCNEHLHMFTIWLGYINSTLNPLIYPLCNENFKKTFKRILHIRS
T6 sequence (P28223 whole entry): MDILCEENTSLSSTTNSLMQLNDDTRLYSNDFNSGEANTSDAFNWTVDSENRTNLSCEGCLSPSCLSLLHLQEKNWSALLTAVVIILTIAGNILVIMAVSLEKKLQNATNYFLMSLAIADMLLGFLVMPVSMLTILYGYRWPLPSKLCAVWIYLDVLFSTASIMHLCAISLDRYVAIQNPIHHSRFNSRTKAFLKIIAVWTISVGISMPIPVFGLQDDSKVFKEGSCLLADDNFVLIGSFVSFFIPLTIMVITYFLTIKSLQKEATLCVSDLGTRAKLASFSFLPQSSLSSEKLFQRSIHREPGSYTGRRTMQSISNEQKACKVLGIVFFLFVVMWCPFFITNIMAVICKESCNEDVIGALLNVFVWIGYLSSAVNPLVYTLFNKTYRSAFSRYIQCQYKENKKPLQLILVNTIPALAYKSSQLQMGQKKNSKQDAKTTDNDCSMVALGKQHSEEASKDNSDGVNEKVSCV
T7 sequence (P18841 whole entry): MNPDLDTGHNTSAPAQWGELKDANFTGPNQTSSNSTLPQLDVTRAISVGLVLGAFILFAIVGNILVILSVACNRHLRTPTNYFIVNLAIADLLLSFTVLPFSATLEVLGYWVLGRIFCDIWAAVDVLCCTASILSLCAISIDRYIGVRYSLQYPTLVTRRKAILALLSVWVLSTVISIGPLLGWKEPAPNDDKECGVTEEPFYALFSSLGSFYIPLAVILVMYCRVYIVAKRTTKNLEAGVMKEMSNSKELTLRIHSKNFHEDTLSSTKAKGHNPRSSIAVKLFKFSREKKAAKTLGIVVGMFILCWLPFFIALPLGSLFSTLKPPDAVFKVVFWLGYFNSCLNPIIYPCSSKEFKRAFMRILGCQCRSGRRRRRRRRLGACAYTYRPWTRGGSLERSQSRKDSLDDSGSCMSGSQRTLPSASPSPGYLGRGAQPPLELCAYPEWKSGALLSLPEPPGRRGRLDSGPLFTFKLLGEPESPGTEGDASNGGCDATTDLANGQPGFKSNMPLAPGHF
T4 sequence (P23944 whole entry): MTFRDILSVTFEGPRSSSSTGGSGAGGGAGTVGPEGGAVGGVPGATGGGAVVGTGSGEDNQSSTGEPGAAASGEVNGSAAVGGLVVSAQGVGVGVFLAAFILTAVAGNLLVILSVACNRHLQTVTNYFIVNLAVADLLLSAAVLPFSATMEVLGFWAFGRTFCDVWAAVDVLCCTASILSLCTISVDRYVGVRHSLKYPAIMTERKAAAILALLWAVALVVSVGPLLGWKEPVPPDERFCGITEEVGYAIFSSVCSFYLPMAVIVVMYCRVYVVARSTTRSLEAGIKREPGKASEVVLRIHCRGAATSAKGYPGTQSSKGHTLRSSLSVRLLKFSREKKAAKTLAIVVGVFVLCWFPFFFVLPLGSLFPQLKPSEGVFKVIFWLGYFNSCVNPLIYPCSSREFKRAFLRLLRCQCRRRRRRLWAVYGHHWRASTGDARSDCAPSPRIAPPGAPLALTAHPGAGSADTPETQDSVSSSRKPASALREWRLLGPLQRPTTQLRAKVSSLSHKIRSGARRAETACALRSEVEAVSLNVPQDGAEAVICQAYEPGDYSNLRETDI
Sequence of 5HT2B (P41595 whole entry): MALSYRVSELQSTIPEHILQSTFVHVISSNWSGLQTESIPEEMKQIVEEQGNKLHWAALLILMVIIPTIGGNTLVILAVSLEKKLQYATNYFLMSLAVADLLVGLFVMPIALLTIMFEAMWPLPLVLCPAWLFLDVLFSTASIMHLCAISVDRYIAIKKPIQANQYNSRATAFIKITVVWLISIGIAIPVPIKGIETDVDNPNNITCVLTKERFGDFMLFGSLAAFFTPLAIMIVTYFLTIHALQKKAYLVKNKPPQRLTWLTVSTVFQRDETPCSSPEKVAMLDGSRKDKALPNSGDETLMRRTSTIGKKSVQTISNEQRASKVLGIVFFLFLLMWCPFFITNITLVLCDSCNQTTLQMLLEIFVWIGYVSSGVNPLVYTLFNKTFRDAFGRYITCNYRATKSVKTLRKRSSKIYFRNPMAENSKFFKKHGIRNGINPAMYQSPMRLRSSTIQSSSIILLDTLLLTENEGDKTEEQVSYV
Sequence of 5HT1E (P28566 whole entry): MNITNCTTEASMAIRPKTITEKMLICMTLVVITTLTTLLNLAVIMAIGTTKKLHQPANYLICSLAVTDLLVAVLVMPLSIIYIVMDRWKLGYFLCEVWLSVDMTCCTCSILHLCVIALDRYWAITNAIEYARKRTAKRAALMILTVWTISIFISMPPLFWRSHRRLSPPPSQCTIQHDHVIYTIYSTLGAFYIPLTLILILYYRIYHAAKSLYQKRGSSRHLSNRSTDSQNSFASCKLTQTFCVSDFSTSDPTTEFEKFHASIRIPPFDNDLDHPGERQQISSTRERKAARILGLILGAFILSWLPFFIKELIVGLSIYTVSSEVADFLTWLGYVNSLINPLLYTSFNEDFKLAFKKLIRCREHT
T5 sequence (P19327 whole entry): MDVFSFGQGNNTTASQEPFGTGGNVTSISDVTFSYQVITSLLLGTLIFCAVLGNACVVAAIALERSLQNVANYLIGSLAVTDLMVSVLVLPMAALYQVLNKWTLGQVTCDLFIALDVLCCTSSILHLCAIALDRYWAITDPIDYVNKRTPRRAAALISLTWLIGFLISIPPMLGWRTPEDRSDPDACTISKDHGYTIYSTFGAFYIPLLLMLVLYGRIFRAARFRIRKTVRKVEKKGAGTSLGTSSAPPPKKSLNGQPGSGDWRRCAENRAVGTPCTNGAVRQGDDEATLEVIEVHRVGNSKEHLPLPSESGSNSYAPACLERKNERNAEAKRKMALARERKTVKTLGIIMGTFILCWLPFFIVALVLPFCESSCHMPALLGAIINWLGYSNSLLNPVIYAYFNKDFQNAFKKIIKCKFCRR

SMILES: Cc1ccc(CN(C(=O)NCc2ccccc2)C2CCN(Cc3ccccc3)CC2)cc1 [Example 26HCH16D, N-((4-Methylphenyl)methyl)-N-(1-(phenylmethyl)piperidin-4-yl)-N′-phenylmethylcarbamide hydrochloride]
- actual efficacy figure [1]: 73%
- initial concentration at which at least 30% efficacy observed ([1]; Antagonist, 4 dose profiling): 3000 nM
- Efficacy ([1]; agonist): nr (nr=activity less than 30% at all doses tested (3, 30, 300, 3000 nM), therefore EC50/IC50 greater than 3000 nM)
- Efficacy [2]: nr (nr=activity less than 30% at all doses tested (3, 30, 300, 3000 nM), therefore EC50/IC50 greater than 3000 nM)
- Efficacy [3]: nr (nr=activity less than 30% at all doses tested (3, 30, 300, 3000 nM), therefore EC50/IC50 greater than 3000 nM)
- initial concentration at which at least 30% efficacy observed ([4]; Antagonist, 4 dose profiling): 3000 nM
- Efficacy ([4]; agonist): nr (nr=activity less than 30% at all doses tested (3, 30, 300, 3000 nM), therefore EC50/IC50 greater than 3000 nM)
- actual efficacy figure ([4]; antagonist): 30%
- initial concentration at which at least 30% efficacy observed ([5]; Inverse Agonist, 4 dose profiling): 3000 nM
- actual efficacy figure ([5]; inverse agonist): 79%
- initial concentration at which at least 30% efficacy observed ([6]; Antagonist, 4 dose profiling): 3000 nM
- actual efficacy figure ([6]; antagonist): 60%
- initial concentration at which at least 30% efficacy observed ([7]; Antagonist, 4 dose profiling): 3000 nM
- Efficacy ([7]; agonist): nr (nr=activity less than 30% at all doses tested (3, 30, 300, 3000 nM), therefore EC50/IC50 greater than 3000 nM)
- actual efficacy figure ([7]; antagonist): 46%
- Efficacy ([8]; agonist): nr (nr=activity less than 30% at all doses tested (3, 30, 300, 3000 nM), therefore EC50/IC50 greater than 3000 nM)
- Efficacy ([8]; antagonist): nr (nr=activity less than 30% at all doses tested (3, 30, 300, 3000 nM), therefore EC50/IC50 greater than 3000 nM)
- Efficacy [9]: nr (nr=activity less than 30% at all doses tested (3, 30, 300, 3000 nM), therefore EC50/IC50 greater than 3000 nM)
- IC50 ([10]; IC50, Inverse Agonist, 7 points in triplicate): 0.9 nM
- selectivity as 5-HT2A inverse agonist ([10]; in words): highly selective
- Emax ([10]; read-out: % efficacy): 79%
- Efficacy ([11]; agonist): nr (nr=activity less than 30% at all doses tested (3, 30, 300, 3000 nM), therefore EC50/IC50 greater than 3000 nM)
- Efficacy ([11]; antagonist): nr (nr=activity less than 30% at all doses tested (3, 30, 300, 3000 nM), therefore EC50/IC50 greater than 3000 nM)

SMILES: CC(C)COc1ccc(CC(=O)N(Cc2ccc(F)cc2)C2CCN(CCCN3C(=O)OC[C@@H]3C(C)C)CC2)cc1.O=C(O)C(=O)O [Example 117NLS01, N-(4-Fluorobenzyl)-2-(4-isobutoxyphenyl)-N-{1-[3-(4-(S)-isopropyl-2-oxo-oxazolidin-3-yl)propyl]piperidin-4-yl}acetamide, oxalate]
- MED in vivo po [12]: 1 mg/kg
- Emax ([10]; 120 h, read-out: 5HT2A % INH): 104%
- IC50 ([10]; Table 5, read-out: 5HT2A pIC50 (converted)): 0.2 nM
